Laboratory results from patent publication US5530126A, “Process for the preparation of substituted 6-(pyrazol-3yl)-1,4-benzoxazin-3-ones” (Monsanto Company, priority 1994, dated 1996).

Assays:
Assay type in all cases: in vivo
Annual bluegrass [1] = assay: Pre-emergence herbicide test; conditions: read-out: % plant inhibition (Anbg); for inhibition at 11210 g/ha: 11.21 kg/ha; for inhibition at 1120 g/ha: 1.12 kg/ha
Procedure, shortened: (§1)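 Pre-emergence greenhouse soil test. Compound applied to seeded soil surface before covering with untreated topsoil. Percent inhibition scored around day 11.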

Barnyardgrass [2] = assay: Pre-emergence herbicide test; conditions: Echinochloa crus-galli, read-out: % plant inhibition (Bygr); for inhibition at 11210 g/ha: 11.21 kg/ha; for inhibition at 1120 g/ha: 1.12 kg/ha
Procedure, shortened: as §1

Cocklebur [3] = assay: Pre-emergence herbicide test; conditions: Xanthium strumarium, read-out: % plant inhibition (Cobu); for inhibition at 11210 g/ha: 11.21 kg/ha; for inhibition at 1120 g/ha: 1.12 kg/ha
Procedure, shortened: as §1

Downy Brome [4] = assay: Pre-emergence herbicide test; conditions: Bromus tectorum, read-out: % plant inhibition (Dobr); for inhibition at 11210 g/ha: 11.21 kg/ha; for inhibition at 1120 g/ha: 1.12 kg/ha
Procedure, shortened: as §1

Indian Mustard [5] = assay: Pre-emergence herbicide test; conditions: Brassica juncea, read-out: % plant inhibition (Inmu); for inhibition at 11210 g/ha: 11.21 kg/ha; for inhibition at 1120 g/ha: 1.12 kg/ha
Procedure, shortened: as §1

Morningglory [6] = assay: Pre-emergence herbicide test; conditions: Ipomoea, read-out: % plant inhibition (Mogl); for inhibition at 11210 g/ha: 11.21 kg/ha; for inhibition at 1120 g/ha: 1.12 kg/ha
Procedure, shortened: as §1

Seedling johnsongrass [7] = assay: Pre-emergence herbicide test; conditions: Sorghum halepense, read-out: % plant inhibition (Sejg); for inhibition at 11210 g/ha: 11.21 kg/ha; for inhibition at 1120 g/ha: 1.12 kg/ha
Procedure, shortened: as §1

Velvetleaf [8] = assay: Pre-emergence herbicide test; conditions: Abutilon theophrasti, read-out: % plant inhibition (Vele); for inhibition at 11210 g/ha: 11.21 kg/ha; for inhibition at 1120 g/ha: 1.12 kg/ha
Procedure, shortened: as §1

Wild buckwheat [9] = assay: Pre-emergence herbicide test; conditions: Fallopia convolvulus, read-out: % plant inhibition (Wibw); for inhibition at 11210 g/ha: 11.21 kg/ha; for inhibition at 1120 g/ha: 1.12 kg/ha
Procedure, shortened: as §1

Yellow nutsedge [10] = assay: Pre-emergence herbicide test; conditions: Cyperus, read-out: % plant inhibition (Yens); for inhibition at 11210 g/ha: 11.21 kg/ha; for inhibition at 1120 g/ha: 1.12 kg/ha
Procedure, shortened: as §1

Annual bluegrass [11] = assay: Post-emergence herbicide test; conditions: read-out: % plant inhibition (Anbg); for inhibition at 11210 g/ha: 11.21 kg/ha; for inhibition at 1120 g/ha: 1.12 kg/ha
Procedure, shortened: (§2)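 Percent growth inhibition against untreated plants, assessed roughly 11 days (range 10–14) after treatment and in some cases at about 25 days. Foliar application was to two- to three-week-old greenhouse plants at 1870 L/Ha spray volume.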

Barnyardgrass [12] = assay: Post-emergence herbicide test; conditions: Echinochloa crus-galli, read-out: % plant inhibition (Bygr); for inhibition at 11210 g/ha: 11.21 kg/ha; for inhibition at 1120 g/ha: 1.12 kg/ha
Procedure, shortened: as §2

Cocklebur [13] = assay: Post-emergence herbicide test; conditions: Xanthium strumarium, read-out: % plant inhibition (Cobu); for inhibition at 11210 g/ha: 11.21 kg/ha; for inhibition at 1120 g/ha: 1.12 kg/ha
Procedure, shortened: as §2

Downy Brome [14] = assay: Post-emergence herbicide test; conditions: Bromus tectorum, read-out: % plant inhibition (Dobr); for inhibition at 11210 g/ha: 11.21 kg/ha; for inhibition at 1120 g/ha: 1.12 kg/ha
Procedure, shortened: as §2

Indian Mustard [15] = assay: Post-emergence herbicide test; conditions: Brassica juncea, read-out: % plant inhibition (Inmu); for inhibition at 11210 g/ha: 11.21 kg/ha; for inhibition at 1120 g/ha: 1.12 kg/ha
Procedure, shortened: as §2

Morningglory [16] = assay: Post-emergence herbicide test; conditions: Ipomoea, read-out: % plant inhibition (Mogl); for inhibition at 11210 g/ha: 11.21 kg/ha; for inhibition at 1120 g/ha: 1.12 kg/ha
Procedure, shortened: as §2

Seedling johnsongrass [17] = assay: Post-emergence herbicide test; conditions: Sorghum halepense, read-out: % plant inhibition (Sejg); for inhibition at 11210 g/ha: 11.21 kg/ha; for inhibition at 1120 g/ha: 1.12 kg/ha
Procedure, shortened: as §2

Velvetleaf [18] = assay: Post-emergence herbicide test; conditions: Abutilon theophrasti, read-out: % plant inhibition (Vele); for inhibition at 11210 g/ha: 11.21 kg/ha; for inhibition at 1120 g/ha: 1.12 kg/ha
Procedure, shortened: as §2

Wild buckwheat [19] = assay: Post-emergence herbicide test; conditions: Fallopia convolvulus, read-out: % plant inhibition (Wibw); for inhibition at 11210 g/ha: 11.21 kg/ha; for inhibition at 1120 g/ha: 1.12 kg/ha
Procedure, shortened: as §2

Yellow nutsedge [20] = assay: Post-emergence herbicide test; conditions: Cyperus, read-out: % plant inhibition (Yens); for inhibition at 11210 g/ha: 11.21 kg/ha; for inhibition at 1120 g/ha: 1.12 kg/ha
Procedure, shortened: as §2

SMILES	inhibition at 1120 g/ha (Annual bluegrass [1]) [%]	inhibition at 1120 g/ha (Barnyardgrass [2]) [%]	inhibition at 1120 g/ha (Cocklebur [3]) [%]	inhibition at 1120 g/ha (Downy Brome [4]) [%]	inhibition at 1120 g/ha (Indian Mustard [5]) [%]	inhibition at 1120 g/ha (Morningglory [6]) [%]	inhibition at 1120 g/ha (Seedling johnsongrass [7]) [%]	inhibition at 1120 g/ha (Velvetleaf [8]) [%]	inhibition at 1120 g/ha (Wild buckwheat [9]) [%]	inhibition at 1120 g/ha (Yellow nutsedge [10]) [%]	inhibition at 1120 g/ha (Annual bluegrass [11]) [%]	inhibition at 1120 g/ha (Barnyardgrass [12]) [%]	inhibition at 1120 g/ha (Cocklebur [13]) [%]	inhibition at 1120 g/ha (Downy Brome [14]) [%]	inhibition at 1120 g/ha (Indian Mustard [15]) [%]	inhibition at 1120 g/ha (Morningglory [16]) [%]	inhibition at 1120 g/ha (Seedling johnsongrass [17]) [%]	inhibition at 1120 g/ha (Velvetleaf [18]) [%]	inhibition at 1120 g/ha (Wild buckwheat [19]) [%]	inhibition at 1120 g/ha (Yellow nutsedge [20]) [%]	other results
Cn1nc(-c2cc(NC(=O)C(F)(F)F)c(Cl)cc2Cl)c(Cl)c1C(F)(F)F [Compound 88]																					inhibition at 11210 g/ha (Annual bluegrass [1]): 20%; inhibition at 11210 g/ha (Barnyardgrass [2]): 10%; inhibition at 11210 g/ha (Cocklebur [3]): 20%; inhibition at 11210 g/ha (Downy Brome [4]): 10%; inhibition at 11210 g/ha (Indian Mustard [5]): 20%; inhibition at 11210 g/ha (Morningglory [6]): 10%; inhibition at 11210 g/ha (Seedling johnsongrass [7]): 30%; inhibition at 11210 g/ha (Velvetleaf [8]): 80%; inhibition at 11210 g/ha (Wild buckwheat [9]): 100%; inhibition at 11210 g/ha (Yellow nutsedge [10]): 10%; inhibition at 11210 g/ha (Annual bluegrass [11]): 10%; inhibition at 11210 g/ha (Barnyardgrass [12]): 50%; inhibition at 11210 g/ha (Cocklebur [13]): 100%; inhibition at 11210 g/ha (Downy Brome [14]): 10%; inhibition at 11210 g/ha (Indian Mustard [15]): 60%; inhibition at 11210 g/ha (Morningglory [16]): 100%; inhibition at 11210 g/ha (Seedling johnsongrass [17]): 70%; inhibition at 11210 g/ha (Velvetleaf [18]): 100%; inhibition at 11210 g/ha (Wild buckwheat [19]): 100%; inhibition at 11210 g/ha (Yellow nutsedge [20]): 0%
Cn1nc(-c2cc(OCC(=O)O)c(Cl)cc2F)c(Cl)c1C(F)(F)F [Compound 291, (2-Chloro-5-(4-chloro-1-methyl-5-(trifluoromethyl)-1H-pyrazol-3-yl)-4-fluorophenoxy)-acetic acid]	30	20	100	20	40	100	40	100	100	30	0	20	100	20	40	100	30	100	90	30	
CC(O)c1cc(-c2nn(C)c(C(F)(F)F)c2Cl)c(F)cc1Cl (centres unmarked) [Compound 107]	20	80	20	30	80	100	40	90	80	0	0	30	50	0	40	50	20	90	90	10	
Cn1nc(-c2cc(C3OCCS3)c(Cl)cc2F)c(Cl)c1C(F)(F)F (centres unmarked) [Compound 102]	60	80	30	80	100	100	90	100	100	20	90	90	60	100	100	100	100	100	100	20	
CCC(C)COC(=O)COc1cc(-c2nn(C)c(C(F)(F)F)c2Cl)c(F)cc1Cl (centres unmarked) [Compound 287]	0	0	90	0	60	70	0	100	80	30	0	70	100	10	20	100	80	100	90	10	
Cn1nc(-c2cc(Oc3ccc(C(F)(F)F)cc3)c(Cl)cc2F)c(Cl)c1C(F)(F)F [Compound 205]																					inhibition at 11210 g/ha (Annual bluegrass [1]): 0%; inhibition at 11210 g/ha (Barnyardgrass [2]): 0%; inhibition at 11210 g/ha (Cocklebur [3]): 0%; inhibition at 11210 g/ha (Downy Brome [4]): 0%; inhibition at 11210 g/ha (Indian Mustard [5]): 30%; inhibition at 11210 g/ha (Morningglory [6]): 0%; inhibition at 11210 g/ha (Seedling johnsongrass [7]): 20%; inhibition at 11210 g/ha (Velvetleaf [8]): 10%; inhibition at 11210 g/ha (Wild buckwheat [9]): 10%; inhibition at 11210 g/ha (Yellow nutsedge [10]): 0%; inhibition at 11210 g/ha (Annual bluegrass [11]): 40%; inhibition at 11210 g/ha (Barnyardgrass [12]): 10%; inhibition at 11210 g/ha (Cocklebur [13]): 60%; inhibition at 11210 g/ha (Downy Brome [14]): 50%; inhibition at 11210 g/ha (Indian Mustard [15]): 60%; inhibition at 11210 g/ha (Morningglory [16]): 80%; inhibition at 11210 g/ha (Seedling johnsongrass [17]): 70%; inhibition at 11210 g/ha (Velvetleaf [18]): 100%; inhibition at 11210 g/ha (Wild buckwheat [19]): 90%; inhibition at 11210 g/ha (Yellow nutsedge [20]): 0%
Cn1nc(-c2cc(CC#N)c(Cl)cc2F)c(Cl)c1C(F)(F)F [Compound 115]	40	80	20	70	100	80	70	100	90	0	40	80	60	20	60	60	40	100	100	20	
